Measured values reported in paper PMC6920875, “Dithiocarbamate as a Valuable Scaffold for the Inhibition of Metallo-β-Lactmases” (Biomolecules, 2019).
Where a name gives a salt, the structure may show the parent alone.

Tests used:
[1] = tested on: Cc1nnc(SCC2=C(C(=O)O)N3C(=O)[C@@H](NC(=O)Cn4cnnn4)[C@H]3SC2)s1; experiment: purified protein, by the assay type; conditions: other: test conditions: 30 mM Tris pH 7.0, 25 °C
[2] = molecular target: T1, ImiS (Aeromonas veronii, UniProt O31272); experiment: biochemical; set-up: species or system Aeromonas veronii bv. sobria; conditions: read-out: IC50 against ImiS; substrate imipenem 40 µM, 30 mM Tris pH 7.0, 25 °C, 5 min pre-incubation, inhibitor up to 200 μM
T1 construct: made in house; host or cells: E. coli BL21 (DE3), plasmid pET-26b-ImiS
Description: (§1) The dithiocarbamates, MβLs and substrates samples were prepared with 30 mM Tris, pH 7.0. […] Enzymes and inhibitors were pre-incubated for 5 min before adding substrate. […] The IC50 values were nonlinearly fitted by plotting the average percentage inhibition against inhibitor concentration. The inhibition modes of DC1 to ImiS, NDM-1 and L1 were assayed by generating Lineweaver–Burk plots, and Ki values were obtained by fitting initial velocity versus substrate concentration at each inhibitor concentration, using SigmaPlot 12.0 (Systat Software Inc., San Jose, CA, USA).
(§2) To evaluate the inhibitory activity of the dithiocarbamates, we over-expressed and purified MβLs NDM-1, VIM-2 and IMP-1 (B1), ImiS (B2), and L1 (B3) from three subclasses as previously reported. The inhibition experiments were performed with an Agilent UV8453 spectrometer. […] The concentrations of inhibitors were varied between 0 and 200 μM. The initial reaction rates were determined in the absence and presence of inhibitors in triplicate, and the generated average values were recorded.

[3] = molecular target: T2, VIM-2 (Escherichia coli, UniProt Q5U7L7); type: biochemical; conditions: read-out: IC50 against VIM-2; substrate cefazolin 40 µM, 30 mM Tris pH 7.0, 25 °C, 5 min pre-incubation, inhibitor up to 200 μM
T2 construct: made in house; host or cells: E. coli BL21 (DE3), plasmid pET24a-VIM-2
Description: as §1, §2

[4] = molecular target: T3, L1 (Stenotrophomonas maltophilia, UniProt P52700); experiment: biochemical; conditions: read-out: IC50 against L1; substrate cefazolin 40 µM, 30 mM Tris pH 7.0, 25 °C, 5 min pre-incubation, inhibitor up to 200 μM
T3 construct: made in house; host or cells: E. coli BL21 (DE3), plasmid pET-26b-L1
Description: as §1, §2

[5] = molecular target: T4, IMP-1 (Serratia marcescens, UniProt P52699); experiment: biochemical; conditions: read-out: IC50 against IMP-1; substrate cefazolin 40 µM, 30 mM Tris pH 7.0, 25 °C, 5 min pre-incubation, inhibitor up to 200 μM
T4 construct: made in house; host or cells: E. coli BL21 (DE3), plasmid pET26b-IMP-1
Description: as §1, §2

[6] = molecular target: T5, NDM-1 (Klebsiella pneumoniae, UniProt C7C422); experiment: biochemical; conditions: read-out: IC50 against NDM-1; substrate cefazolin 40 µM, 30 mM Tris pH 7.0, 25 °C, 5 min pre-incubation, inhibitor up to 200 μM
T5 construct: made in house; host or cells: E. coli BL21 (DE3), plasmid pET26b-NDM-1
Description: as §1, §2

[7] = tested on: mouse fibroblast cells (L-929); experiment: Cytotoxicity assay (MTT); type: cell-based; conditions: concentration as high as 250 μM, 48 h
Description: The cytotoxicity assays were performed to evaluate the toxicity of DC1, DC3, DC7 and DC9 in mouse fibroblast cells (L-929). The cells were seeded into 96-well plates at a cell density of 1.0 × 10^4 cells/well, in 100 μL of culture medium and maintained for 24 h. Then, the inhibitors with working concentrations (15.6, 31.25, 62.5, 125, 250, and 500 μM) were added to the 96-well plates and incubated for another 48 h. Three wells containing only cells were suspended in a mixture solution of 98 μL complete medium, as controls for cell viability without inhibitors. Three wells containing only the complete medium were used as blank controls. Following that, the medium was removed, and 100 μL of fresh culture medium and 10 μL MTT were added to each well. After incubation for 4 h, the trays were then vigorously shaken to solubilize the formed product, and the absorbance, at a wavelength of 490 nm, was read on a microplate reader and analyzed. All experiments were conducted in triplicate, and the data are expressed as mean ± standard deviation.
The potential toxicity of dthiocarbamates DC1, DC3, DC7 and DC9 as representatives was assayed using the mouse fibroblast cells (L929) treated with different concentrations of inhibitors (15.625, 31.25, 62.5, 125, 250 and 500 μM).

[8] = molecular target: T5, NDM-1; experiment: Time-dependence inhibition experiment, residual activity; type: biochemical; conditions: 13 nM NDM-1 incubated with inhibitor at its IC50 for 8 h
[9] = tested on: C[C@@H](O)[C@H]1C(=O)N2C(C(=O)O)=C(SCCN=CN)C[C@H]12; experiment: purified protein, by the assay type; conditions: other: test conditions: 30 mM Tris pH 7.0, 25 °C
[10] = tested on: E. coli BL21 expressing ImiS; experiment: MIC determination, broth micro-dilution, imipenem with inhibitor; type: cell-based; conditions: 64 μg/mL inhibitor
Description: (§3) The minimum inhibitory concentration (MIC) of antibiotics, both alone and in the presence of enzyme inhibitors, was determined using the broth micro-dilution method. Single colonies of E. coli BL21, containing plasmid, pET26b-NDM-1, pET26b-ImiS or pET26b-L1 in lysogeny broth agar plates, were transferred into 5 mL of Mueller–Hinton (MH) liquid medium. Strains grown in MH medium to OD600 = 0.45 were used as inocula, after an 84-fold dilution to 1 × 10^5 CFU/mL in MH medium. […] Compound DCs as inhibitors were dissolved in MH media, to prepare 1024, 512, 256, 128, 64 and 32 μg/mL stock solutions. The prepared solutions with different antibiotic concentrations (50 μL) were diluted to 100 μL, with different concentrations of inhibitor solution (50 μL), then 100 μL inoculum was added sequentially into the prepared solutions, to yield a quarter of the initial concentrations. The mixtures were incubated at 37 °C for 16 h. […] Each measurement was performed in duplicate.
(§4) The ability of the dithiocarbamate derivatives to inhibit MβLs, and to restore the antimicrobial activity of antibiotics, was investigated by determining the minimum inhibitory concentrations (MICs) of existing antibiotics in the presence and absence of DC1-10, as previously reported. E. coli BL21 (DE3) containing plasmids pET26b-NDM-1, pET26b-ImiS and pET26b-L1 were used to assess these inhibitors.

[11] = tested on: E. coli BL21 expressing L1; experiment: MIC determination, broth micro-dilution, cefazolin with inhibitor; type: cell-based; conditions: 64 μg/mL inhibitor
Description: as §3, §4

[12] = tested on: E. coli BL21 expressing NDM-1; experiment: as above; type: cell-based; conditions: E. coli BL21-NDM-1; 64 μg/mL inhibitor
Description: as §3, §4

T5 sequence (C7C422 29-270 limits assumed): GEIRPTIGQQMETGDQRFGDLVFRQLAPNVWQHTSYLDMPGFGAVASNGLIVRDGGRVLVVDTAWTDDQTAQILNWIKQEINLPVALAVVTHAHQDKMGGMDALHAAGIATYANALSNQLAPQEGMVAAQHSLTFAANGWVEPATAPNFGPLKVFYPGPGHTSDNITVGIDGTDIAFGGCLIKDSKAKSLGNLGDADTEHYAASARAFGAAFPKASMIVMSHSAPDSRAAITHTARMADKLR
T4 sequence (P52699 19-246 limits assumed): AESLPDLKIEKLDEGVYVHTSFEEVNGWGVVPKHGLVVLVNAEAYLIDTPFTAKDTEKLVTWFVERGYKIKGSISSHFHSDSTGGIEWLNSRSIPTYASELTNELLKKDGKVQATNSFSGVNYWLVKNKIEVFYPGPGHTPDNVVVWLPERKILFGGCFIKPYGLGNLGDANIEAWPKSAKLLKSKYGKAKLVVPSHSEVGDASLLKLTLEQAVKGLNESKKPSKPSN
T3 sequence (P52700 34-290): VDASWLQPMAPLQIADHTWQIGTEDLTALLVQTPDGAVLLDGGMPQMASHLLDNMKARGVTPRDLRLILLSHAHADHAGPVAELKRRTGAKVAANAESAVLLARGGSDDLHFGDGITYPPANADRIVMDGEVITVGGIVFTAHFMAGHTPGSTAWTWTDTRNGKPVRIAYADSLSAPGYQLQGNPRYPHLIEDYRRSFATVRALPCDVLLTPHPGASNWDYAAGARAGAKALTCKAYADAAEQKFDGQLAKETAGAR
T1 sequence (O31272 28-255 limits assumed): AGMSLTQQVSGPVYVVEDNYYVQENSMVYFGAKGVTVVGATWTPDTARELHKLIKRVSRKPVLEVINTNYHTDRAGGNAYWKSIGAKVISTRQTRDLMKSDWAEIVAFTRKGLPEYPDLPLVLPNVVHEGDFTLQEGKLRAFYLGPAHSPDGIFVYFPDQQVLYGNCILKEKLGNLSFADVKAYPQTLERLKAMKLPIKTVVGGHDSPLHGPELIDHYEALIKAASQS

Compound	IC50 [2] [µM]	IC50 [3] [µM]	IC50 [4] [µM]	IC50 [5] [µM]	IC50 [6] [µM]	melting point [°C]	also measured
IMP-1 (Serratia marcescens)	–	–	–	–	–	–	Km [1]: 73 µM
O=C(NNC(=S)[S][K])c1ccc(Cl)cc1 [DC5]	129 ± 2.1	> 200	> 200	> 200	91.3 ± 1.7	> 300	–
NDM-1 (Klebsiella pneumoniae)	–	–	–	–	–	–	Km [1]: 15 µM
O=C(CCc1ccccc1)NNC(=S)[S][K] [DC9, Potassium 2-(3-phenylpropanoyl)hydrazine-1-carbodithioate]	156 ± 2.2	115 ± 3.1	> 200	86.2 ± 0.9	62.7 ± 1.05	–	survival rate of L929 mouse cells [7]: higher than 80%
O=C(NNC(=S)[S][K])C(O)c1ccccc1 (centres unmarked) [DC10, Potassium 2-(2-hydroxy-2-phenylacetyl)hydrazine-1-carbodithioate]	–	–	–	–	–	–	time dependence of NDM-1 inhibition (residual activity) [8]: no time-dependent inhibition
VIM-2 (Escherichia coli)	–	–	–	–	–	–	Km [1]: 97 µM
O=C(CCc1ccccc1)NNC(=S)[S][K] (as salt: potassium) [DC9, Potassium 2-(3-phenylpropanoyl)hydrazine-1-carbodithioate]	–	–	–	–	–	170 to 171	–
ImiS (Aeromonas veronii)	–	–	–	–	–	–	Km [9]: 52 µM
O=C(Cc1ccccc1)NNC(=S)[S][K] [DC2]	2.5 ± 0.1	> 200	86.8 ± 1.6	166 ± 2.7	5.64 ± 0.1	150 to 151	–
O=C(NNC(=S)[S][K])c1ccccc1 [DC8]	–	–	25.81 ± 0.12	–	–	–	time dependence of NDM-1 inhibition (residual activity) [8]: no time-dependent inhibition
O=C(NNC(=S)[S][K])c1cccc(Br)c1 [DC6]	2.56 ± 0.05	> 200	154 ± 3.2	> 200	15.2 ± 0.9	> 300	–
O=C(NNC(=S)[S][K])c1ccc(O)cc1 [DC3]	> 200	82.8 ± 1.1	> 200	> 200	67.1 ± 0.9	298 to 299	survival rate of L929 mouse cells [7]: higher than 80%; fold reduction in MIC of imipenem [10]: no inhibitory effects; fold reduction in MIC of cefazolin [11]: no inhibitory effects; fold reduction in MIC of cefazolin [12]: no inhibitory effects
Nc1ccccc1C(=O)NNC(=S)[S][K] [DC4]	1.08 ± 0.05	139 ± 2.05	177 ± 2.8	103 ± 1.45	11.4 ± 0.4	233 to 234	–
CC(C)(C)c1ccc(C(=O)NNC(=S)[S][K])cc1 [DC7]	> 200	63.5 ± 1.3	191 ± 4	96.4 ± 1.2	0.52 ± 0.01	> 300	survival rate of L929 mouse cells [7]: higher than 80%
L1 (Stenotrophomonas maltophilia)	–	–	–	–	–	–	Km [1]: 60 µM
